Results reported in ChEMBL document CHEMBL1629418, “Spiroimidazolidinone NPC1L1 inhibitors. Part 2: structure-activity studies and in vivo efficacy” (Bioorg Med Chem Lett, 2010).

Molecular target: T1, NPC1-like intracellular cholesterol transporter 1 (Homo sapiens, UniProt Q9UHC9)
T1 sequence (Q9UHC9 whole entry): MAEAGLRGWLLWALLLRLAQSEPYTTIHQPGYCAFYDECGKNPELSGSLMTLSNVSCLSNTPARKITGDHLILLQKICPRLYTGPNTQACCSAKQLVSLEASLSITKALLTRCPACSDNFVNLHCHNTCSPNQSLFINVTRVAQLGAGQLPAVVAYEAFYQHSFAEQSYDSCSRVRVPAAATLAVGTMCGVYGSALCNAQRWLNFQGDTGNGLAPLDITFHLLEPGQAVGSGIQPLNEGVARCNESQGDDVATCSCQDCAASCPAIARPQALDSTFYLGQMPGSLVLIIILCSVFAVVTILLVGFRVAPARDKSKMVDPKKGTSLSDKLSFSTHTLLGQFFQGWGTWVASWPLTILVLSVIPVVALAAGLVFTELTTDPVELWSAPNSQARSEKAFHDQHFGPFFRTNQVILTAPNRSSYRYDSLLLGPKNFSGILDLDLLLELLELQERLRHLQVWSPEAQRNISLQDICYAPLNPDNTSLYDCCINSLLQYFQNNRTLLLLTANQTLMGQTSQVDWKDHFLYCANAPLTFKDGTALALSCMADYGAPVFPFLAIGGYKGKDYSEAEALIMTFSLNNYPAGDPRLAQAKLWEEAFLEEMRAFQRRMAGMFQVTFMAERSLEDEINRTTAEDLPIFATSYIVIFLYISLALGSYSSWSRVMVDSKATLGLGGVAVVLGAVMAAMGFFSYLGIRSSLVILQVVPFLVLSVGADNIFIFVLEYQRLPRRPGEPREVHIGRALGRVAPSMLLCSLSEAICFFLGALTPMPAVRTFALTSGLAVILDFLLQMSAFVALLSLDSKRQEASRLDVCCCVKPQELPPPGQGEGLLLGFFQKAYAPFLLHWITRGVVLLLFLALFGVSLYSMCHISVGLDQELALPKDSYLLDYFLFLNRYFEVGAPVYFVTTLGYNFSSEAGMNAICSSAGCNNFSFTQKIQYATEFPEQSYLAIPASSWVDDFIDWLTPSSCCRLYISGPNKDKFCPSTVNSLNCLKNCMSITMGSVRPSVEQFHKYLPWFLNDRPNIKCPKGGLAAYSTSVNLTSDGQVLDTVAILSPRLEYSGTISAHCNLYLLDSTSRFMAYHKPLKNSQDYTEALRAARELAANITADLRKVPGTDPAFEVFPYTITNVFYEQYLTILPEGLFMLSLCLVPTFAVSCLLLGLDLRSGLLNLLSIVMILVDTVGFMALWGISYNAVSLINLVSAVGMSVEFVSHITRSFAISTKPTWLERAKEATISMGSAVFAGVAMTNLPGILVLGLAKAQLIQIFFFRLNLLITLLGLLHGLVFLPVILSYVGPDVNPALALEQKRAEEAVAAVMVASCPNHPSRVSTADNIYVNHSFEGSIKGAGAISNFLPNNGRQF
Experiment: Displacement of [35S](2S,3S,4S,5R,6S)-6-(4-((2S,3R)-3-((S)-3-(4-fluorophenyl)-3-hydroxypropyl)-1-(4-(3-(methylsulfonamido)prop-1-ynyl)phenyl)-4-oxoazetidin-2-yl)phenoxy)-3,4,5-trihydroxytetrahydro-2H-pyran-2-carboxylic acid from human NCP1L1 expressed in HEK 293
Type: cell-based, HEK293

Row | IC50 [µM] | SMILES
1 | 8.2 | CCOC(=O)C1CCCN(C(=O)CN2CN(c3ccccc3)C3(CCN(C(=O)c4ccc(C(C)(C)C)cc4)CC3)C2=O)C1 (centres undefined)
2 | 8.3 | CC(C)(C)OC(=O)NC1CCN(C(=O)CN2CN(c3ccccc3)C3(CCN(C(=O)c4ccc(C(C)(C)C)cc4)CC3)C2=O)CC1
3 | 22 | CC(C)(C)c1ccc(C(=O)N2CCC3(CC2)C(=O)N(CC(=O)N2CCNCC2)CN3c2ccccc2)cc1
4 | 4.6 | CCc1nn(CC)c(C2CCN(C(=O)CN3CN(c4ccccc4)C4(CCN(C(=O)c5ccc(C(C)(C)C)cc5)CC4)C3=O)CC2)c1CC
5 | 4 | CC(C)(C)c1ccc(C(=O)N2CCC3(CC2)C(=O)N(CC(=O)N2CCC(CO)CC2)CN3c2ccccc2)cc1
6 | 3.1 | CCOC(=O)C1CCN(C(=O)CN2CN(c3ccccc3)C3(CCN(C(=O)c4ccc(C(C)(C)C)cc4)CC3)C2=O)CC1
7 | 2.6 | CC(C)(C)c1ccc(C(=O)N2CCC3(CC2)C(=O)N(CC(=O)N2CCC(CCO)CC2)CN3c2ccccc2)cc1
8 | 4.2 | CCOC(=O)C1CCCN(C(=O)CN2CN(c3ccccc3)C3(CCN(C(=O)c4ccc(C5CCCCC5)cc4)CC3)C2=O)C1 (centres undefined)
9 | 4.2 | CC(C)(C)OC(=O)NCC1CCN(C(=O)CN2CN(c3ccccc3)C3(CCN(C(=O)c4ccc(C(C)(C)C)cc4)CC3)C2=O)CC1
10 | 16.9 | CC(C)(C)c1ccc(C(=O)N2CCC3(CC2)C(=O)N(CC(=O)N2CCCC(C(N)=O)C2)CN3c2ccccc2)cc1 (centres undefined)
11 | 5.4 | CCc1c(C)c(C2CCN(C(=O)CN3CN(c4ccccc4)C4(CCN(C(=O)c5ccc(C(C)(C)C)cc5)CC4)C3=O)CC2)nn1CC
12 | 12 | CC1CCCN(C(=O)CN2CN(c3ccccc3)C3(CCN(C(=O)c4ccc(C(C)(C)C)cc4)CC3)C2=O)C1 (centres undefined)
13 | 59 | CC(C)(C)c1ccc(C(=O)N2CCC3(CC2)C(=O)N(CC(=O)NCCN)CN3c2ccccc2)cc1
14 | 19.2 | CC(C)(C)c1ccc(C(=O)N2CCC3(CC2)C(=O)N(CC(=O)NCCO)CN3c2ccccc2)cc1
15 | 9.5 | CC(C)(C)OC(=O)NCC1CCCN(C(=O)CN2CN(c3ccccc3)C3(CCN(C(=O)c4ccc(C(C)(C)C)cc4)CC3)C2=O)C1 (centres undefined)
16 | 8.7 | CCN(CC)C(=O)C1CCCN(C(=O)CN2CN(c3ccccc3)C3(CCN(C(=O)c4ccc(C(C)(C)C)cc4)CC3)C2=O)C1 (centres undefined)
17 | 4.2 | CC(C)(C)OC(=O)NC1CCCN(C(=O)CN2CN(c3ccccc3)C3(CCN(C(=O)c4ccc(C(C)(C)C)cc4)CC3)C2=O)C1 (centres undefined)
18 | 16.6 | COC(=O)CNC(=O)CN1CN(c2ccccc2)C2(CCN(C(=O)c3ccc(C(C)(C)C)cc3)CC2)C1=O
19 | 4.7 | CC(C)(C)c1ccc(C(=O)N2CCC3(CC2)C(=O)N(CC(=O)N2CCC(O)CC2)CN3c2ccccc2)cc1
20 | 3.9 | CCC1CCCN(C(=O)CN2CN(c3ccccc3)C3(CCN(C(=O)c4ccc(C(C)(C)C)cc4)CC3)C2=O)C1 (centres undefined)
21 | 6.1 | CC(C)(C)c1ccc(C(=O)N2CCC3(CC2)C(=O)N(CC(=O)N2CCCCC2CCO)CN3c2ccccc2)cc1 (centres undefined)

Further lines, the compound ahead of its results:

Row | SMILES | IC50 [µM]
22 | CC(C)(C)OC(=O)NCNC(=O)CN1CN(c2ccccc2)C2(CCN(C(=O)c3ccc(C(C)(C)C)cc3)CC2)C1=O | 59
23 | CC(C)(C)OC(=O)NCCCCCNC(=O)CN1CN(c2ccccc2)C2(CCN(C(=O)c3ccc(C(C)(C)C)cc3)CC2)C1=O | 3.1
24 | CC(C)(C)c1ccc(C(=O)N2CCC3(CC2)C(=O)N(CC(=O)NCCCCCN)CN3c2ccccc2)cc1 | 7.7
25 | CS(=O)(=O)N1CCN(C(=O)CN2CN(c3ccccc3)C3(CCN(C(=O)c4ccc(C5CCCCC5)cc4)CC3)C2=O)CC1 | 6.3
26 | CCn1nc(Cc2ccccc2)cc1C1CCN(C(=O)CN2CN(c3ccccc3)C3(CCN(C(=O)c4ccc(C(C)(C)C)cc4)CC3)C2=O)CC1 | 6.4
27 | NCCNC(=O)CN1CN(c2ccccc2)C2(CCN(C(=O)c3ccc(C4CCCCC4)cc3)CC2)C1=O | 26.5
28 | COC(=O)CNC(=O)CN1CN(c2ccccc2)C2(CCN(C(=O)c3ccc(C4CCCCC4)cc3)CC2)C1=O | 3.7
29 | CC1CCCN(C(=O)CN2CN(c3ccccc3)C3(CCN(C(=O)c4ccc(C5CCCCC5)cc4)CC3)C2=O)C1 (centres undefined) | 3.6
30 | O=C(CN1CN(c2ccccc2)C2(CCN(C(=O)c3ccc(C4CCCCC4)cc3)CC2)C1=O)N1CCCCC1 | 1.1
31 | COC(=O)CCNC(=O)CN1CN(c2ccccc2)C2(CCN(C(=O)c3ccc(C4CCCCC4)cc3)CC2)C1=O | 4.5
32 | CC1(C)CC(OC(=O)CN2CN(c3ccccc3)C3(CCN(C(=O)c4ccc(C(C)(C)C)cc4)CC3)C2=O)CC(C)(C)N1 | 1.3
33 | CC(C)(C)c1ccc(C(=O)N2CCC3(CC2)C(=O)N(CC(=O)NCCNS(C)(=O)=O)CN3c2ccccc2)cc1 | 49
34 | CS(=O)(=O)NCCNC(=O)CN1CN(c2ccccc2)C2(CCN(C(=O)c3ccc(C4CCCCC4)cc3)CC2)C1=O | 7
35 | CCC1CCCN(C(=O)CN2CN(c3ccccc3)C3(CCN(C(=O)c4ccc(C5CCCCC5)cc4)CC3)C2=O)C1 (centres undefined) | 2.6
36 | CC(C)(C)OC(=O)NCCNC(=O)CN1CN(c2ccccc2)C2(CCN(C(=O)c3ccc(C4CCCCC4)cc3)CC2)C1=O | 13.7
37 | CC(C)(C)c1ccc(C(=O)N2CCC3(CC2)C(=O)N(CC(=O)NCCCNS(C)(=O)=O)CN3c2ccccc2)cc1 | 10.4
38 | COC(=O)CCCNC(=O)CN1CN(c2ccccc2)C2(CCN(C(=O)c3ccc(C4CCCCC4)cc3)CC2)C1=O | 4.5

Row | SMILES | IC50 [µM]
39 | CC1(C)CC(OC(=O)CN2CN(c3ccccc3)C3(CCN(C(=O)c4ccc(C5CCCCC5)cc4)CC3)C2=O)CC(C)(C)N1 | 0.6
40 | CC(C)(C)c1ccc(C(=O)N2CCC3(CC2)C(=O)N(CC(=O)NCCCCN)CN3c2ccccc2)cc1 | 14
41 | CC(C)(C)c1ccc(C(=O)N2CCC3(CC2)C(=O)N(CC(=O)N2CCN(S(=O)(=O)c4ccccc4)CC2)CN3c2ccccc2)cc1 | 15
42 | CC(C)(C)OC(=O)NCC1CCCN(C(=O)CN2CN(c3ccccc3)C3(CCN(C(=O)c4ccc(C5CCCCC5)cc4)CC3)C2=O)C1 (centres undefined) | 3.8
43 | NC(=O)C1CCCN(C(=O)CN2CN(c3ccccc3)C3(CCN(C(=O)c4ccc(C5CCCCC5)cc4)CC3)C2=O)C1 (centres undefined) | 3.1
44 | CC(C)(C)c1ccc(C(=O)N2CCC3(CC2)C(=O)N(CC(=O)NCCCCCO)CN3c2ccccc2)cc1 | 3.8
45 | CC(C)(C)OC(=O)NCCCNC(=O)CN1CN(c2ccccc2)C2(CCN(C(=O)c3ccc(C4CCCCC4)cc3)CC2)C1=O | 3.7
46 | O=C(CN1CN(c2ccccc2)C2(CCN(C(=O)c3ccc(C4CCCCC4)cc3)CC2)C1=O)N1CCN(S(=O)(=O)c2ccccc2)CC1 | 14.2
47 | CC(C)(C)OC(=O)NC1CCN(C(=O)CN2CN(c3ccccc3)C3(CCN(C(=O)c4ccc(C5CCCCC5)cc4)CC3)C2=O)CC1 | 4.8
48 | CC(C)(C)c1ccc(C(=O)N2CCC3(CC2)C(=O)N(CC(=O)NCCCO)CN3c2ccccc2)cc1 | 23.6
49 | CC(C)(C)OC(=O)NC1CCCN(C(=O)CN2CN(c3ccccc3)C3(CCN(C(=O)c4ccc(C5CCCCC5)cc4)CC3)C2=O)C1 (centres undefined) | 4.4
50 | CC(C)(C)c1ccc(C(=O)N2CCC3(CC2)C(=O)N(CC(=O)NCCCCNS(C)(=O)=O)CN3c2ccccc2)cc1 | 10.3
51 | CC(C)(C)c1ccc(C(=O)N2CCC3(CC2)C(=O)N(CC(=O)NCCCN)CN3c2ccccc2)cc1 | 49
52 | CC(C)(C)c1ccc(C(=O)N2CCC3(CC2)C(=O)N(CC(=O)NCCC(=O)O)CN3c2ccccc2)cc1 | 23.6
53 | NCCCNC(=O)CN1CN(c2ccccc2)C2(CCN(C(=O)c3ccc(C4CCCCC4)cc3)CC2)C1=O | 3.1
54 | O=C(CN1CN(c2ccccc2)C2(CCN(C(=O)c3ccc(C4CCCCC4)cc3)CC2)C1=O)N1CCNCC1 | 6.5
